Source: patent US20150374680A1, “POCHOXIME CONJUGATES USEFUL FOR THE TREATMENT OF HSP90 RELATED PATHOLOGIES” (UNIVERSITE DE STRASBOURG, priority 2010, published 2015)

Assays:
[1] = tested on: HER2+BT474 breast carcinoma cells; assay: Proliferation assay in BT474 (ATPlite); format: cell-based; settings: Homo sapiens, BT-474, 72 hours, average of three independent experiments
Method: (§1) The compounds were dissolved in 100% DMSO to make 10 mM stock solutions. HER2+BT474 breast carcinoma cells were cultured in DMEM/F12 media, supplemented with 10% FBS. Log-phase growing BT474 cells were seeded in 96 well plates at 1.5×10E4 per well. At this cell density, BT474 is expected to reach confluency about 70-80% in 3 days. Different dilutions of compounds or vehicle in 200 μl (concentration range 0.004-10 μM) were added to the cells and incubated for 72 hours. Upon completion of the incubation, media were gently removed by suction and 100 μl of ATPlite solution (Perkin Elmer) was added in each well. Viable cells were measured by detecting luminescence generated from reaction of ATPlite solution and ATP in the cells using a 96-well microplate luminescence reader. Relative luminescence light unit is correlated to the amount of ATP in viable cells. The assays were performed in duplicates. IC50 was calculated using XLfit. The IC50 shown in Table 4 below is the average IC50 from three independent experiments.

[2] = tested on: HSP90 client protein in SKBR3 cell lines; settings: earlier work of the inventors; cited from earlier work
Her-2 in SkBr3 cells = assay: Her-2 depletion in SkBr3 cells (pharmacodynamic marker of cellular efficacy); format: cell-based; settings: Homo sapiens, SK-BR-3; SkBr3 cells treated with the inhibitor overnight; read-out: PD (μM), pharmacodynamic EC50, Her-2 depletion
Method: FIG. 2. Cellular efficacy of pochoximes A1B5C1D1 (IC50). Depletion of Her-2 in SkBr3 cells were treated treated with the inhibitor for 18 h. […]

human HSP90α = target: T1, human HSP90α (Homo sapiens, UniProt P07900); assay: biochemical; format: binding
T1 construct: purchased Stressgen SPP-776F

N87 = assay: Proliferation assay in N87; format: cell-based; settings: N87, Gastric (Her2+)
Method: as §1
(§2) Additional proliferation assays were performed for certain exemplified compounds using the methods similar to the one described above in multiple cancer cell lines.

A498 = assay: Proliferation assay in A498; format: cell-based; settings: Homo sapiens, A498, Renal (VHL mut)
Method: as §1, §2

A549 = assay: Proliferation assay in A549; format: cell-based; settings: Homo sapiens, A549, Lung
Method: as §1, §2

NCI-H2228 = assay: Proliferation assay in NCI-H2228; format: cell-based; settings: Homo sapiens, NCI-H2228, Lung (EML4-ALK+)
Method: as §1, §2

SKOV-3 = assay: Proliferation assay in SKOV-3; format: cell-based; settings: Homo sapiens, SK-OV-3, SKOV-3, Ovarian (Her2+)
Method: as §1, §2

HCC1569 = assay: Proliferation assay in HCC1569; format: cell-based; settings: Homo sapiens, HCC1569, Breast (Her2+; Her2i res)
Method: as §1, §2

H460 = assay: Proliferation assay in H460; format: cell-based; settings: Homo sapiens, NCI-H460, H460, Lung
Method: as §1, §2

H1975 = assay: Proliferation assay in H1975; format: cell-based; settings: Homo sapiens, NCI-H1975, H1975, Lung (EGFR mut)
Method: as §1, §2

H23 = assay: Proliferation assay in H23; format: cell-based; settings: Homo sapiens, NCI-H23, H23, Lung
Method: as §1, §2

Row | Compound | EC50 (Her-2 in SkBr3 cells) [µM] | EC50 (human HSP90α) [nM] | further results
1 | C[C@@H]1C/C=C/[C@H](NC(=O)CS[C@@H]2OC(CO)[C@@H](O)C(O)C2O)C/C=C/C(=N\OCC(=O)N2CCCCC2)Cc2cc(O)cc(O)c2C(=O)O1 (some centres unmarked) [Compound 11Z] | – | – | IC50 [1]: > 10 µM
2 | C[C@@H]1C/C=C/[C@@H](NC(=O)CS[C@@H]2OC(CO)[C@@H](O)C(O)C2O)C/C=C/C(=N/OCC(=O)N2CCCCC2)Cc2cc(O)cc(O)c2C(=O)O1 (some centres unmarked) [Compound 5E] | – | – | IC50 [1]: 7.84 µM
3 | pochoxime B | – | – | Concentration inducing client protein degradation [2]: low nM
4 | CCN(CC)C(=O)CON=C1C=C(C)CCC=CCC(C)OC(=O)c2c(O)cc(O)cc2C1 (centres unmarked) [Compound A1B3C1D18] | ≤ 1 | 200 | –
5 | C[C@@H]1C/C=C/[C@@H](O)C/C=C/C(=N\OCC(=O)N2CCCCC2)Cc2c(Cl)c(O)cc(O)c2C(=O)O1 [As-10b(6-S)-Z] | – | – | IC50 [1]: 0.824 µM
6 | CC1CCCN(C(=O)CON=C2C=CCCC=CCCOC(=O)c3c(O)cc(O)cc3C2)C1 (centres unmarked) [Compound A1B1C4D3] | ≤ 0.1 | 60 | –
7 | O=C1OCCC=CCCC=CC(=NOCC(=O)N2CCSCC2)Cc2cc(O)cc(O)c21 [Compound A1B1C4D11] | ≤ 0.5 | 70 | –
8 | CC(=O)N[C@H]1/C=C/C[C@@H](C)OC(=O)c2c(O)cc(O)cc2CC(=N/OCC(=O)N2CCCCC2)/C=C/C1 [Compound 14Z] | – | – | IC50 [1]: 0.27 µM
9 | O=C1OCCC=CCCC=CC(=NOCC(=O)N2CCCC2)Cc2cc(O)cc(O)c21 [Compound A1B1C4D17] | ≤ 0.5 | 219 | –
10 | CC(C)N(C(=O)CON=C1C=CCCC=CCCOC(=O)c2c(O)cc(O)cc2C1)C(C)C [Compound A1B1C4D20] | ≤ 1 | 162 | –
11 | C[C@@H]1C/C=C/[C@@H](N)C/C=C/C(=N/OCC(=O)N2CCCCC2)Cc2cc(O)cc(O)c2C(=O)O1 [Compound 12E] | – | – | IC50 [1]: 0.03 µM
12 | O=C1OCCC=CCCC=CC(=NOCC(=O)N2CCC(Cc3ccccc3)CC2)Cc2cc(O)cc(O)c21 [Compound A1B1C4D8] | > 10 | 5760 | –
13 | C[C@@H]1C/C=C/[C@@H](O)C/C=C/C(=N\OCC(=O)N2CCCCC2)Cc2cc(O)cc(O)c2C(=O)O1 [As-10a(6-S)-Z] | – | – | IC50 (N87): 11 nM; IC50 (A498): 24 nM; IC50 (A549): 22 nM; IC50 (NCI-H2228): 77 nM; IC50 [1]: 0.026 µM; IC50 (SKOV-3): 25 nM; IC50 (HCC1569): 100 nM; IC50 (H460): 15 nM; IC50 (H1975): 35 nM; IC50 (H23): 28 nM
14 | CC1=CC(=NOCC(=O)N2CCCCC2)Cc2cc(O)cc(O)c2C(=O)OCCC=CCC1 [Compound A1B3C4D1] | ≤ 0.5 | 46 | –
15 | O=C1OCCC=CCCC=CC(=NOCC(=O)N2CCC(c3ccccc3)CC2)Cc2cc(O)cc(O)c21 [Compound A1B1C4D7] | > 10 | 2240 | –
16 | CC1C=CCC(C)OC(=O)c2c(O)cc(O)c(Cl)c2CC(=NOCC(=O)N2CCCCC2)C=CC1 (centres unmarked) [Compound A2B4C1D1] | ≤ 1 | 154 | –
17 | O=C1OCCC=CCCC=CC(=NOCC(=O)N(Cc2ccccc2)Cc2ccccc2)Cc2cc(O)cc(O)c21 [Compound A1B1C4D21] | > 10 | 2990 | –
18 | COC(=O)CON=C1C=CCCC=CCCOC(=O)c2c(O)cc(O)cc2C1 [Compound A1B1C4D26] | ≤ 10 | 372 | –
19 | CCCC1CC=CCCC(C)=CC(=NOCC(=O)N(CC)CC)Cc2cc(O)cc(O)c2C(=O)O1 (centres unmarked) [Compound A1B3C2D18] | > 10 | 4660 | –
20 | CC(C)CN(CC(C)C)C(=O)CON=C1C=CCCC=CCCOC(=O)c2c(O)cc(O)cc2C1 [Compound A1B1C4D19] | ≤ 5 | 94 | –
21 | CC1C=CCCOC(=O)c2c(O)cc(O)cc2CC(=NOCC(=O)N2CCCCC2)C=CC1 (centres unmarked) [Compound A1B4C4D1] | ≤ 0.5 | 21 | –
22 | CCC1CCCCN1C(=O)CON=C1C=CCCC=CCCOC(=O)c2c(O)cc(O)cc2C1 (centres unmarked) [Compound A1B1C4D5] | < 1 | 243 | –
23 | CC(=O)N[C@H]1/C=C/C[C@@H](C)OC(=O)c2c(O)cc(O)cc2CC(=N\OCC(=O)N2CCCCC2)/C=C/C1 [Compound 14E] | – | – | IC50 [1]: 0.223 µM

Row | Compound | EC50 (Her-2 in SkBr3 cells) [µM] | EC50 (human HSP90α) [nM] | further results
24 | C[C@@H]1C/C=C/[C@H](N)C/C=C/C(=NOCC(=O)N2CCCCC2)Cc2cc(O)cc(O)c2C(=O)O1 [Compound 13] | – | – | IC50 [1]: 0.097 µM
25 | O=C(CON=C1C=CCCC=CCCOC(=O)c2c(O)cc(O)cc2C1)NCc1ccccc1 [Compound A1B1C4D22] | ≤ 1 | 57 | –
26 | CC1C=CCCCOC(=O)c2c(O)cc(O)c(Cl)c2CC(=NOCC(=O)N2CCCCC2)C=CC1 (centres unmarked) [Compound A2B4C5D1] | > 10 | 1720 | –
27 | C[C@@H]1C/C=C/[C@@H](O)C/C=C/C(=N/OCC(=O)N2CCCCC2)Cc2c(Cl)c(O)cc(O)c2C(=O)O1 [As-10b(6-S)-E] | – | – | IC50 (N87): 13 nM; IC50 (A498): 37 nM; IC50 (A549): 126 nM; IC50 (NCI-H2228): 281 nM; IC50 [1]: 0.027 µM; IC50 (SKOV-3): 45 nM; IC50 (HCC1569): 187 nM; IC50 (H1975): 33 nM; IC50 (H23): 36 nM
28 | C[C@@H]1C/C=C/[C@H](NC(=O)CS[C@@H]2OC(CO)[C@@H](O)C(O)C2O)C/C=C/C(=N/OCC(=O)N2CCCCC2)Cc2cc(O)cc(O)c2C(=O)O1 (some centres unmarked) [Compound 11E] | – | – | IC50 [1]: 4.76 µM
29 | CC1CN(C(=O)CON=C2C=CCCC=CCCOC(=O)c3c(O)cc(O)cc3C2)CC(C)O1 (centres unmarked) [Compound A1B1C4D14] | ≤ 5 | 337 | –
30 | O=C1NCCC=CCCC=CC(=NOCC(=O)N2CCCCC2)Cc2c(Cl)c(O)cc(O)c21 [Compound A2B1C3D1] | ≤ 1 | 198 | –
31 | CC1CC=CCCC=CC(=NOCC(=O)N2CCCCC2)Cc2cc(O)cc(O)c2C(=O)O1 (centres unmarked) [Compound A1B1C1D1] | ≤ 5 | 34 | –
32 | CCN(CC)C(=O)CON=C1C=CCCC=CCCOC(=O)c2c(O)cc(O)cc2C1 [Compound A1B1C4D18] | ≤ 1 | 196 | –
33 | CCCC1CC=CCCC=CC(=NOCC(=O)N2CCCCC2)Cc2cc(O)cc(O)c2C(=O)O1 (centres unmarked) [Compound A1B1C2D1] | > 10 | 588 | –
34 | C[C@@H]1C/C=C/[C@@H](O)C/C=C/C(=N/OCC(=O)N2CCCCC2)Cc2cc(O)cc(O)c2C(=O)O1 [As-10a(6-S)-E] | – | – | IC50 (N87): 73 nM; IC50 (A498): 99 nM; IC50 (A549): 90 nM; IC50 (NCI-H2228): 241 nM; IC50 [1]: 0.058 µM; IC50 (SKOV-3): 67 nM; IC50 (HCC1569): 377 nM; IC50 (H460): 45 nM; IC50 (H1975): 73 nM; IC50 (H23): 88 nM
35 | C[C@@H]1C/C=C/[C@@H](NC(=O)CS[C@@H]2OC(CO)[C@@H](O)C(O)C2O)C/C=C/C(=N\OCC(=O)N2CCCCC2)Cc2cc(O)cc(O)c2C(=O)O1 (some centres unmarked) [Compound 5Z] | – | – | IC50 [1]: > 10 µM
36 | O=C1OCCC=CCCC=CC(=NOCC(=O)N2CC=CC2)Cc2cc(O)cc(O)c21 [Compound A1B1C4D15] | ≤ 1 | 128 | –
37 | CC1C=CC(C)N1C(=O)CON=C1C=CCCC=CCCOC(=O)c2c(O)cc(O)cc2C1 (centres unmarked) [Compound A1B1C4D16] | ≤ 1 | 119 | –
38 | C[C@@H]1C/C=C/[C@@H](N)C/C=C/C(=N\OCC(=O)N2CCCCC2)Cc2cc(O)cc(O)c2C(=O)O1 [Compound 12Z] | – | – | IC50 [1]: 0.038 µM
39 | O=C1OCCC=CCCC=CC(=NOCC(=O)N2CCOCC2)Cc2cc(O)cc(O)c21 [Compound A1B1C4D10] | ≤ 0.5 | 124 | –
40 | CC1C=CCCOC(=O)c2c(O)cc(O)c(Cl)c2CC(=NOCC(=O)N2CCCCC2)C=CC1 (centres unmarked) [Compound A2B4C4D1] | ≤ 5 | 170 | –
41 | CCCC1CC=CC(C)CC=CC(=NOCC(=O)N2CCCCC2)Cc2c(Cl)c(O)cc(O)c2C(=O)O1 (centres unmarked) [Compound A2B4C2D1] | ≤ 10 | 1750 | –
42 | pochoxime C | – | – | Concentration inducing client protein degradation [2]: low nM
43 | CCCC1CC=CCCC(C)=CC(=NOCC(=O)N(CC)CC)Cc2c(Cl)c(O)cc(O)c2C(=O)O1 (centres unmarked) [Compound A2B3C2D18] | > 10 | 900 | –
44 | O=C(CON=C1C=CCCC=CCCOC(=O)c2c(O)cc(O)cc2C1)NC1CCCCC1 [Compound A1B1C4D24] | ≤ 5 | 155 | –
45 | C=CC1=CCCC=CC(=NOCC(=O)N2CCCCC2)Cc2c(Cl)c(O)cc(O)c2C(=O)OCC1 [Compound A2B1C8D1] | ≤ 1 | 432 | –
